The nature of this data set: Formation constants of Fe(II) complexes by UV-vis spectrophotometric titrations. Type of data set: physicochemical. Conditions: I = 0.1 M KCl, 25.0 °C. As for the experimental part: UV-vis titrations were performed to determine the formation (overall stability) constants (β) for the complexes of HQNO2-L-Pro formed with Fe(III) and Fe(II) ions (Figures S10 and S11). In the latter case, titrations were performed in a laboratory glove box. The calculations were complicated by the overlapping feature of the ligand bands and the charge transfer bands of the complexes. Based on the absorption spectra Figures S10a and S11a), formation of mono, bis, and tris complexes were found in both chemical systems; obtained constants are collected in Table 2. […] Based on the concentration distribution diagrams (see Figure S10b for Fe(III) and Figure S11b for Fe(II)), it can be concluded that the tris complexes are the dominant species at pH 7.4 in the case of Fe(III), while with Fe(II) both tris and bis-ligand species are formed under the conditions of the titrations.
An Agilent Cary 8454 diode array spectrophotometer (Santa Clara, CA, USA) was used to obtain UV-vis spectra in the wavelength range 200–1000 nm, while spectra were recorded for the Fe(II)-containing samples using an Avantes (Avantes B.V., Apeldoorn, The Nederlands) AvaSpec-ULS2048CL-EVO spectrometer with an AvaLight-DHc light source and FDP-7UVIR200-2-VAR transmission dip probe. The titrations for the Fe(II)-containing samples were performed in a laboratory glove box (GP(Campus), Jacomex) (O2 content ≤ 1 ppm). The path length (ℓ) was 1 cm in most cases (the actual ℓ is always indicated in the legends of the figures). The concentrations of the ligands and complexes were between 40 and 200 µM, and 0.2 M KNO3 for the organometallic complexes or 0.1 M KCl for the Fe(II/III), Cu(II), and Zn(II) complexes were used to adjust the constant ionic strength. For HSA containing samples, complex concentrations were 50 µM, and 0.5, and 2 equiv. biomolecules were added for kinetic studies, respectively. For HSA model containing samples, complex concentrations were 50 µM, and the model concentrations were 0–150 µM and 0–500 µM, respectively, and the pH was 7.4 (PBS’). Spectra were always background and baseline corrected. The computer program HypSpec was used to obtain stability constants. Hydrolysis constants of the Fe(III), Fe(II), RuCym, and RhCp* species were included in the speciation models (see Table S4 with the data taken from References).

The text below walks through data of publication PMC9820345, “Metal Complexes of a 5-Nitro-8-Hydroxyquinoline-Proline Hybrid with Enhanced Water Solubility Targeting Multidrug Resistant Cancer Cells” (International Journal of Molecular Sciences, 2022).

Turning to `O=C(O)[C@@H]1CCCN1Cc1cc([N+](=O)[O-])c2cccnc2c1O` [HQNO2-L-Pro, (2S)-1-((8-hydroxy-5-nitroquinolin-7-yl)methyl)pyrrolidin-1-ium-2-carboxylate], the “logβ [M(HL)2]” value came out at 32.74 ± 0.03, the “logβ [M(HL)3]” value stood at 47.60 ± 0.06, the “logβ [M(HL)]” value is 16.52 ± 0.03 and the “logβ [M(L)]” value was 8.39 ± 0.03.
